pIC50: −log10 of the molar value. Like-named read-outs stand apart in the source and are kept apart here.
Columns and labels:
EZH2 and H3K27me3 = assay: Western Blot for EZH2 and H3K27me3 on whole cell extracts; type: cell-based, human; settings: 10 μM GSK126, 7 days in culture
Experimental: For Western blotting, 25 μg of protein extract per sample was denatured with heat and reducing agents, separated on a 4-12% acrylimide gel and transferred to nitrocellulose. Antibodies used for Western blotting were: EZH2 (Cell Signalling), β-actin (AbCAM) and H3K27me3 (Upstate).
Whole cell extracts were made in RIPA buffer (0.5% Deoxycholate, 1% IGEPAL-CA630, 0.1% sodium dodecyl sulfate, 150 mM NaCL, 50 mM Tris-8.1), lysates were cleared by centrifugation, and protein concentrations were quantified with the Pierce BCA Protein Assay Kit (Thermo). For Western blotting, 25 μg of protein extract per sample was denatured with heat and reducing agents, separated on a 4-12% acrylimide gel (BioRad) and transferred to nitrocellulose (GE Healthcare). Antibodies used for Western blotting were: EZH2 (clone D2C9; Cell Signaling; 1:200), Histone H3 (polyclonal; AbCAM ab1791; 1:2000) and H3K27me3 (polyclonal; Millipore 07-449; 1:1000) all incubated overnight at 4° C. Secondary antibody, anti-rabbit-HRP (Santa Cruz sc-2313; 1:5,000), was incubated for 1 hour at room temperature. After washing, chemi-luminescence was visualized with Western Lightning Plus-ECL (PerkinElmer) and exposure onto KODAK BioMax XAR™ film.

human NSCLC lines = assay: Cytotox assays: chemotherapy dose response curves with or without EZH2 inhibitor, 4 days; type: cell-based; settings: for pIC50: various NSCLC cell lines, 4 days, read-out: etoposide IC50
Experimental: Cell lines were dissociated, counted and plated at 5000 cells per well in flat bottom opaque tissue culture treated 96 well plates (CytoOne). Edge wells were filled with PBS. The following day, 2× drug diluted in media was added to each well such that the well then contained 100 ul media with 1× drug concentration. After 4 days, Cell Titer Glo™ (Promega) was added and luminescence was read on a BioTec plate reader to determine relative cell number in each well. Data were averaged for triplicate or quadruplicate technical replicates, normalized to the untreated wells and input into GraphPad Prism software to extrapolate IC50.
Cell lines were dissociated, counted and plated at 5000 cells per well in flat bottom opaque tissue culture treated 96 well plates (CytoOne). Edge wells were filled with PBS. The following day, 2× drug diluted in media was added to each well such that the well then contained 100 ul media with 1× drug concentration at the following doses: etoposide; 0, 0.1, 1, 3, 5, 7, 10, 50, 100, 500 μM, cisplatin; 0, 0.1, 1, 5, 10, 30, 70, 100, 500 μM, or doxorubicin; 0, 0.01, 0.1, 0.5, 1, 3, 5, 7, 10, 50 μM. […] Data were averaged for triplicate or quadruplicate technical replicates and normalized to the untreated wells. Results from three or four independent biological replicate experiments were input into […] PRISM™ software to extrapolate IC50 and s.e.m. of IC50 for a given cell line.

[1] = system: BRG1 mutant and BRG1 wild-type cell lines; assay: Gefitinib dose response curves, 4 days; type: cell-based, human; settings: data not shown

SMILES: CC[C@H](C)n1cc(C)c2c(C(=O)NCc3c(C)cc(C)[nH]c3=O)cc(-c3ccc(N4CCNCC4)nc3)cc21 [GSK126]
- EZH2 levels (EZH2 and H3K27me3): remained unchanged
- H3K27me3 levels (EZH2 and H3K27me3): marked decrease
- etoposide dose response: classes of GSK126 treated cell lines (human NSCLC lines; 10 μM GSK126): same TopoII inhibitor-sensitized and -protected classes

SMILES: N.N.[Cl][Pt][Cl] [cisplatin]
- cisplatin IC30 (human NSCLC lines; NSCLC cell lines, approximate): ~5 µM

SMILES: COc1cc([C@@H]2c3cc4c(cc3[C@@H](O[C@@H]3O[C@@H]5CO[C@@H](C)O[C@H]5[C@H](O)[C@H]3O)[C@H]3COC(=O)[C@H]23)OCO4)cc(OC)c1O [etoposide]
- pIC50 (human NSCLC lines; Homo sapiens, 96 h, approximate): ~5.00
- pIC50 (human NSCLC lines; approximate): ~5.30

SMILES: COc1cc2ncnc(Nc3ccc(F)c(Cl)c3)c2cc1OCCCN1CCOCC1 [gefitinib]
- gefitinib sensitivity of BRG1 mutant vs BRG1 wild-type cell lines [1]: slightly more sensitive
